Laboratory results published in patent US20170119851A1, “METHODS OF TREATING ANOREXIA” (NOVARTIS AG, priority 2014, published 2017).
No end group written: not given here.

What was measured:
C57BL mice [1] = assay: Food intake after intranasal (IN) AgRP in mice; type: in vivo; details: 57 μg AgRP in saline
Description: One day prior to treatment, 4-h food intake was measured and animals grouped to match group means of food intake. On the day of the study, food was removed at 9:00 am. […] After dosing, the mice remained in the isoflurane chamber in a supine position for 3 min before being returned to their cages. A pre-weighed amount of food was given to the animals before the dark cycle. Food weight was recorded at 4 and 24 hours post dose.
All data were analyzed using an unpaired t-test comparing saline and AgRP in saline. A p value of <0.05 or lower was taken to be statistically significant. All data were analyzed and plotted using GraphPad Prism6 software (San Diego, Calif.).

C57BL mice [2] = assay: Food intake after subcutaneous (SC) AgRP in mice; type: in vivo; details: 57 μg AgRP
Description: One day prior to treatment, 4-h food intake was measured and animals grouped to match group means of food intake. On the day of the study, animals were dosed via SC injection between 10:30 to 11:00 am. Pre-weighed food was provided to the mice prior to the dark cycle (11:00 am). At 4 and 24 h post dose food intake was measured.
All data were analyzed using an unpaired t-test comparing PBS and AgRP in saline. A p value of <0.05 or lower was taken to be statistically significant. All data were analyzed and plotted using GraphPad Prism6 software (San Diego, Calif.).

[3] = system: lean Sprague Dawley (SD) rats; assay: Food intake after intranasal AgRP in lean rats; type: in vivo
Description: The purpose of the following study was to determine if intranasal—(IN) administered AgRP would stimulate food intake in lean Sprague Dawley (SD) rats.
8-12 week-old male SD rats were housed one per cage with a standard chow diet and normal light cycle.
One and two days prior to dosing, 24 h food intake and body weight were measured. Animals were grouped based on body weight and food intake. […] Animals were actively sniffing when compound was administered. After dosing, rats were returned to their home cages. A pre-weighed amount of food was given to the animals after dosing. Food weight was recorded at 4 and 24 hours post dose.
All data were analyzed using an unpaired t-test comparing saline and AgRP. A p value of <0.05 or lower was taken to be statistically significant. All data were analyzed and plotted using GraphPad Prism6 software (San Diego, Calif.).

in vivo [4] = details: male, C57BL, mouse, plasma, 57 ug
Description: Male C57BL mice were housed one per cage with normal chow diet and housed in normal light cycle (light on 6:00-18:00).
10 min prior to the treatment, tail blood samples were taken and plasma (10 μl) was obtained. […] After being dosed, the mice remained in the isoflurane chamber for 2 min before placed back in their home cages. […] Tail blood samples were taken at 2, 5, 10, 30 min and 1, 2, 4 and 24 h post dose. Plasma samples were aliquoted and stored at −80° C. until analysis.

MC4R [5] = target: T1, MC4R (Homo sapiens, UniProt P32245); assay: HTRF cAMP assay, HEK293/MC4R stable cell line; type: cell-based; details: HEK293/MC4R cells, titration against NDP-aMSH
T1 construct: expressed in transfected cells; host or cells: HEK293
T1 sequence (P32245 whole entry, species assumed): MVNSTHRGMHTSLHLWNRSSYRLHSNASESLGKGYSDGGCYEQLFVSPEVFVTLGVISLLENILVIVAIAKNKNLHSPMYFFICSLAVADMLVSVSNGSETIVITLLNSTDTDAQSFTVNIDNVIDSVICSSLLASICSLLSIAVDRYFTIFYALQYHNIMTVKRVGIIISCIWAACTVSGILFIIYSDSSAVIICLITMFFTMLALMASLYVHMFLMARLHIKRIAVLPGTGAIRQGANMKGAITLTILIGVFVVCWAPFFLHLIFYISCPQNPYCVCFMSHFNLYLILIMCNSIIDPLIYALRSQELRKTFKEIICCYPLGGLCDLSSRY
Description: A) HTRF cAMP Assay Protocol:
• Flash spindown the 384 well plate at 1200 RPM • Incubated the cells for 15 minutes at an ambient temperature • Add 10 μL of the following reagents into each well based on your sample alignment
• Flash spindown the 384 well plate at 1200 RPM • Incubate the cells for an additional 30 minutes at an ambient temperature • *This incubation time is not so strict. +/−5 min should be OK according to assay development data. • Add 10 μL of cAMP-d2 (diluted 1:4 in the lysis buffer provided in the kit) • *Important!! For Negative control, not cAMP-d2, but just the lysis buffer • Add 10 μL of anti-cAMP Cryptate (diluted 1:4 in the lysis buffer provided in the kit) • Flash spindown at 1200 RPM. • Incubate the assay plate for 45-60 min at an ambient temperature. • Transfer […] of each sample to a tissue culture treated white polystyrene 384-well assay plate (Corning, Cat. No. 3572) • Flash spindown at 1200 RPM. • Measure the fluorescence with a Molecular device M5 or M5e with the following setting.

MC3R [6] = target: T2, MC3R (Homo sapiens, UniProt P41968); assay: MC3 cAMP assay, HEK293/MC3R stable cell line (antagonist protocol); type: cell-based; details: HEK293/MC3R cells, antagonist protocol against NDP-α-MSH EC80
T2 construct: expressed in transfected cells; host or cells: HEK293
T2 sequence (P41968 whole entry, species assumed): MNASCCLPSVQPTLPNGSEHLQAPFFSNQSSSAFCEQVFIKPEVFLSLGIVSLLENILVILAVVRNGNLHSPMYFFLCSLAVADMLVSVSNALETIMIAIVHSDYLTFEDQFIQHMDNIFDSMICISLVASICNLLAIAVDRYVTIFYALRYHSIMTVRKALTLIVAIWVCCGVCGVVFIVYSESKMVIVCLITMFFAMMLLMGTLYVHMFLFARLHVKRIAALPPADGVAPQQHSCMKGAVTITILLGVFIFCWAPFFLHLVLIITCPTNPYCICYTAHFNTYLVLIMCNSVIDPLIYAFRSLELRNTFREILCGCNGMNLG
Description: Cells: HEK293/MC3R stable cell line Complete medium: DMEM/F12 1:1 (Gibco, Cat. No. 11039) • 10% FBS (Heat inactivated, Gibco, Cat. No. 10082)× • 200 μg/mL Geneticin (Gibco, Cat. No. 10131) • 2 mM L-glutamine (GIBCO, Cat No. 25030) Flask: 150 cm^2 tissue culture treated flask (Corning, Cat. No. 430825).
• I. Aspirate conditioned medium • II. Wash with 2.5 mL of DPBS (Gibco, Cat. No. 14190) • III. Add 2 mL of 0.25% Trypsin-EDTA (Gibco, Cat. No. 25200-056) • IV. Leave the flask for few minutes in incubator, tap the flask a few time to detach cells. • V. Add 10 mL of the complete medium to stop Trypsin-EDTA treatment and mix it well by pipetting softly a few times to re-suspend clumping cells • VI. Transfer 1.5 ml of cells into a new 150 cm flask containing 20 ml of complete media • VII. Transfer the remaining suspension into a 50 mL centrifuge tube • VIII. Spin down at 1200 rpm for 4 mins. Aspirate supernatant • IX. Add 6 mL of the assay buffer to the tube and re-suspend the cells by softly pipetting • X. Transfer 0.5 mL of the suspension into a sample vial for Vi-cell and add another 0.5 ml of PBS. • XI. Count cell number by using a Vi-cell *Record cell density and viability every time • i. Plate cells at 4K/well in 10 ul/well of assay buffer containing IBMX. • ii. Leave the plate in incubator for ˜30 mins before assay is started on suspension cells. […]

in vivo [7] = details: male, Sprague-Dawley, rat, plasma, iv, 10 nanomoles per rat
Description: C) In Vivo Assay Description:
10 nanomoles of conjugate was dissolved in 300 L of PBS (Phosphate buffered saline) to form Dosing solution. Dosing solution (300 M) was administered intravenously to male Sprague-Dawley rats via lateral tail vein (corresponding to a dose 10 nanomoles per rat). Blood was collected via tail snip at prescribed times after dosing and immediately placed on wet ice. These samples were centrifuged at 4 C, with supernatant plasma transferred to a fresh tube for analysis.
For assay, intermediates were diluted to a top standard concentration of 2500 pg/mL and then diluted 2-fold serially to 16 points including a zero dose standard in ELISA sample diluent with bovine serum albumin (BSA).
Plasma samples were diluted 10-fold and then 5-fold serially out to 31,250-fold in ELISA sample diluent with BSA.
Plates were aspirated and blocked with a milk-based blocker at 90 uL/well for 2 hours at RT. All further incubations were carried out at 30 uL/well. Plates were aspirated again and samples and standards were added to the wells for 2 hours at RT. […] The plates were washed again and a HRP-labeled streptavidin reagent was added to the wells for 30 minutes at RT. Plates were washed a final time and a chemiluminescent substrate was added to all wells and plates were read immediately on a Spectramx M5 for light output.
Raw data was organized and analyzed for basic PK parameters.

MC3R [8] = target: T2, MC3R; details: Jackson et al., Biochemistry 41, 7565-7572; cited from earlier work
MC4R [9] = target: T1, MC4R; details: Jackson et al., Biochemistry 41, 7565-7572; cited from earlier work
MC3R and MC4R = details: Jackson et al., Biochemistry 41, 7565-7572; cited from earlier work

## CSCC[C@@H]1NC(=O)[C@H](C)NC(=O)[C@H]([C@@H](C)O)NC(=O)CNC(=O)[C@H](CC(C)C)NC(=O)[C@H](CCCCN)NC(=O)[C@H](CCCNC(=N)N)NC(=O)[C@@H]2CSSC[C@@H]3NC(=O)[C@@H]4CCCN4C(=O)[C@H](C(C)C)NC(=O)[C@H](CCC(N)=O)NC(=O)[C@H](CCC(N)=O)NC(=O)CNC(=O)[C@H](CC(C)C)NC(=O)[C@@H]4CSSC[C@H](NC(=O)[C@H]([C@@H](C)O)NC(=O)[C@H](C)NC(=O)[C@H](CSSC[C@@H](C(=O)N[C@@H](CO)C(=O)N[C@@H](CCCNC(=N)N)C(=O)N[C@H](C(=O)O)[C@@H](C)O)NC(=O)[C@@H]5CCCN5C(=O)[C@H](CC(N)=O)NC1=O)NC(=O)[C@@H]1CCCN1C(=O)[C@H](CC(=O)O)NC(=O)[C@H](CSSC[C@H](NC(=O)[C@H](CCCNC(=N)N)NC(=O)[C@H](CCCNC(=N)N)NC(=O)[C@H](CO)NC(=O)[C@@H](N)CO)C(=O)N[C@@H](C(C)C)C(=O)N[C@@H](CCCNC(=N)N)C(=O)N[C@@H](CC(C)C)C(=O)N[C@@H](Cc1c[nH]cn1)C(=O)N[C@@H](CCC(=O)O)C(=O)N[C@@H](CO)C(=O)N4)NC3=O)C(=O)N[C@@H](Cc1ccc(O)cc1)C(=O)N[C@H]1CSSC[C@H](NC(=O)[C@H](Cc3ccccc3)NC(=O)[C@H](C)NC(=O)[C@H](CC(N)=O)NC(=O)[C@H](Cc3ccccc3)NC(=O)[C@H](Cc3ccccc3)NC(=O)[C@H](CCCNC(=N)N)NC1=O)C(=O)N[C@@H](Cc1ccc(O)cc1)C(=O)N2 [AgRP, Agouti-Related Peptide]
C57BL mice [1]; 4 h post dose
  food intake vs saline (unpaired t-test): significant effect
C57BL mice [1]; 24 h post dose
  food intake vs saline (unpaired t-test): significant effect
C57BL mice [2]; 4 h post dose
  food intake vs PBS (unpaired t-test): did not resulted in a significant effect
C57BL mice [2]; 24 h post dose
  food intake vs PBS (unpaired t-test): did not resulted in a significant effect
[3]; 57 μg AgRP, 24 h post dose
  food intake vs saline (unpaired t-test): significant increase
[3]; 171 μg AgRP, 4 h post dose
  food intake vs saline (unpaired t-test): significant effect
[3]; 171 μg AgRP, 24 h post dose
  food intake vs saline (unpaired t-test): significant increase
In vivo [4]; other: intranasal (IN)
  Cmax: 97.6 ng/mL
  Tmax: 1 h
In vivo [4]; sc
  Cmax: 2810 ng/mL
  Tmax: 0.5 h

## CCCCCCCCCCCC(CCCCCCCCCCC(=O)O)(C(=O)O)C(=O)NCCOCCOCCOCCOCCOCCOCCOCCOCCOCCOCCOCCOCCOCCOCCOCCOCCOCCOCCOCCOCCOCCOCCOCCOCCC(=O)N[C@@H](CO)C(=O)N[C@@H](CO)C(=O)N[C@@H](CCCNC(=N)N)C(=O)N[C@@H](CCCNC(=N)N)C(=O)N[C@H]1CSSC[C@@H]2NC(=O)[C@@H]3CSSC[C@@H]4NC(=O)[C@H](Cc5ccc(O)cc5)NC(=O)[C@@H]5CSSC[C@H](NC(=O)[C@H](Cc6ccc(O)cc6)NC(=O)[C@H](CSSC[C@H](NC(=O)[C@H](CO)NC(=O)[C@H](CCC(=O)O)NC(=O)[C@H](Cc6c[nH]cn6)NC(=O)[C@H](CC(C)C)NC(=O)[C@H](CCCNC(=N)N)NC(=O)[C@H](C(C)C)NC1=O)C(=O)N[C@@H](CC(C)C)C(=O)NCC(=O)N[C@@H](CCC(N)=O)C(=O)N[C@@H](CCC(N)=O)C(=O)N[C@@H](C(C)C)C(=O)N1CCC[C@H]1C(=O)N3)NC(=O)[C@H]([C@@H](C)O)NC(=O)[C@H](C)NC(=O)[C@H](CSSC[C@@H](C(=O)N[C@@H](CO)C(=O)N[C@@H](CCCNC(=N)N)C(=O)N[C@H](C(=O)O)[C@@H](C)O)NC(=O)[C@@H]1CCCN1C(=O)[C@H](CC(N)=O)NC(=O)[C@H](CCSC)NC(=O)[C@H](C)NC(=O)[C@H]([C@@H](C)O)NC(=O)CNC(=O)[C@H](CC(C)C)NC(=O)[C@H](CCCCN)NC(=O)[C@H](CCCNC(=N)N)NC4=O)NC(=O)[C@@H]1CCCN1C(=O)[C@H](CC(=O)O)NC2=O)C(=O)N[C@@H](CCCNC(=N)N)C(=O)N[C@@H](Cc1ccccc1)C(=O)N[C@@H](Cc1ccccc1)C(=O)N[C@@H](CC(N)=O)C(=O)N[C@@H](C)C(=O)N[C@@H](Cc1ccccc1)C(=O)N5 (some centres unmarked) [Example 5A]
MC4R [5]
  EC50: 18 nM
MC3R [6]
  EC50: 7 nM
In vivo [7]
  half-life: 20 h

## CCCCCCCCCCCC(CCCCCCCCCCC(=O)O)(C(=O)O)C(=O)NCCOCCOCCOCCOCCOCCOCCOCCOCCOCCOCCOCCOCCOCCOCCOCCOCCOCCOCCOCCOCCOCCOCCOCCOCCC(=O)NCCCC[C@@H]1NC(=O)[C@H](CCCNC(=N)N)NC(=O)[C@@H]2CSSC[C@@H]3NC(=O)[C@@H]4CCCN4C(=O)[C@H](C(C)C)NC(=O)[C@H](CCC(N)=O)NC(=O)[C@H](CCC(N)=O)NC(=O)CNC(=O)[C@H](CC(C)C)NC(=O)[C@@H]4CSSC[C@H](NC(=O)[C@H]([C@@H](C)O)NC(=O)[C@H](C)NC(=O)[C@H](CSSC[C@@H](C(=O)N[C@@H](CO)C(=O)N[C@@H](CCCNC(=N)N)C(=O)N[C@H](C(=O)O)[C@@H](C)O)NC(=O)[C@@H]5CCCN5C(=O)[C@H](CC(N)=O)NC(=O)[C@H](CCSC)NC(=O)[C@H](C)NC(=O)[C@H]([C@@H](C)O)NC(=O)CNC(=O)[C@H](CC(C)C)NC1=O)NC(=O)[C@@H]1CCCN1C(=O)[C@H](CC(=O)O)NC(=O)[C@H](CSSC[C@H](NC(=O)[C@H](CCCNC(=N)N)NC(=O)[C@H](CCCNC(=N)N)NC(=O)[C@H](CO)NC(=O)[C@H](CO)NC(=O)CCOCCOCCOCCOCCOCCOCCOCCOCCOCCOCCOCCOCCOCCOCCOCCOCCOCCOCCOCCOCCOCCOCCOCCOCCNC(=O)C(CCCCCCCCCCC)(CCCCCCCCCCC(=O)O)C(=O)O)C(=O)N[C@@H](C(C)C)C(=O)N[C@@H](CCCNC(=N)N)C(=O)N[C@@H](CC(C)C)C(=O)N[C@@H](Cc1c[nH]cn1)C(=O)N[C@@H](CCC(=O)O)C(=O)N[C@@H](CO)C(=O)N4)NC3=O)C(=O)N[C@@H](Cc1ccc(O)cc1)C(=O)N[C@H]1CSSC[C@H](NC(=O)[C@H](Cc3ccccc3)NC(=O)[C@H](C)NC(=O)[C@H](CC(N)=O)NC(=O)[C@H](Cc3ccccc3)NC(=O)[C@H](Cc3ccccc3)NC(=O)[C@H](CCCNC(=N)N)NC1=O)C(=O)N[C@@H](Cc1ccc(O)cc1)C(=O)N2 (some centres unmarked) [Example 5B]
MC4R [5]
  EC50: 167 nM
MC3R [6]
  EC50: 65 nM
In vivo [7]
  half-life: 52 h

## AgRP (87-120): shorter biologically active fragment of AgRP described in Jackson et al. (CVRLHESCLGQQVPCCDPCATCYCRFFNAFCYCR; also: disulfide pairing of this fragment not given here, 9 Cys (C105 partner C129 absent))
MC3R [8]
  MC3R affinity compared with AgRP(83-132): approximately the same
MC4R [9]
  MC4R affinity compared with AgRP(83-132): approximately the same
MC3R and MC4R
  inverse agonism compared with AgRP(83-132): equivalent inverse agonism

## AgRP(87-132): shorter biologically active fragment of AgRP described in Jackson et al.
MC3R [8]
  MC3R affinity compared with AgRP(83-132): approximately the same
MC4R [9]
  MC4R affinity compared with AgRP(83-132): approximately the same
MC3R and MC4R
  inverse agonism compared with AgRP(83-132): equivalent inverse agonism
